In article PMC4660440 (Scientific Reports, 2015):

How the values were obtained:
[1] = system: HeLa; assay: MTT cytotoxicity assay, HeLa; format: cell-based; conditions: Homo sapiens, HeLa, 48 h, drug exposure 48 h, mean ± SD (n = 3), read-out: Cytotoxic activity (IC50) HeLa
Experimental: (§1) HeLa, BGC823, A-549, MCF-7 and HT-7702 cell lines were obtained from the ATCC. […] Tumor cells (3500–13,000) were seeded into 96-well microtest plates in 100 μL of culture medium per well, incubated for 48 h in the presence or absence of test compounds (8 different concentrations ranging from 100 to 0.01 μg/mL). For quantitative estimation of cytotoxicity, the (MTT) method was used, essentially performed as described previously. Briefly, cells were washed twice with PBS, fixed for 15 min in 1% glutaraldehyde solution, rinsed twice in PBS, and stained in 0.5% MTT solution for 4 h at 37 °C. […] The initial seeding densities varied among the cell lines to ensure a final absorbance reading in control (untreated) cultures within the range of 0.6–0.8 A492 units. Drug exposure was carried out for 2 days, and the IC50 value, i.e., the drug concentration that decreased the absorbance by 50%, was extrapolated from dose-response data. Each test was performed in triplicate, and the absorbance readings between the triplicates varied by no more than 10%.

[2] = system: BGC-823; assay: MTT cytotoxicity assay, BGC-823; format: cell-based; conditions: Homo sapiens, BGC-823, drug exposure 48 h, mean ± SD (n = 3), read-out: Cytotoxic activity (IC50) BGC-823
Experimental: as §1

[3] = system: A549; assay: MTT cytotoxicity assay, A549; format: cell-based; conditions: Homo sapiens, A549, drug exposure 48 h, mean ± SD (n = 3), read-out: Cytotoxic activity (IC50) A549
Experimental: as §1

[4] = system: MCF-7; assay: MTT cytotoxicity assay, MCF-7; format: cell-based; conditions: Homo sapiens, MCF7, drug exposure 48 h, mean ± SD (n = 3), read-out: Cytotoxic activity (IC50) MCF-7
Experimental: as §1

[5] = MTT cytotoxicity assay, normal hepatic cell line HL-7702; format: cell-based; conditions: HL-7702 normal hepatic cells, human normal hepatic immortal cell line, drug exposure 48 h, mean ± SD (n = 3), read-out: Cytotoxic activity (IC50) HL-7702
Experimental: as §1

[6] = system: HeLa cells; assay: Cell cycle analysis by flow cytometry (PI); format: cell-based; conditions: for Effect on HeLa cell cycle: 0.1, 1.0, 5.0 μM, 6, 12, 24, 48 h; for Ratio of cell cycle arrest (of total cells): 0.1 μM, 6, 12, 24 and 48 h
Experimental: The HeLa cell line was used for cell cycle analysis. Progression through the cell cycle was assessed by flow cytometry DNA determination with Propidium Iodide (PI). […] Flow cytometric analysis was performed using a BD accur C6 flow cytometer. Analysis was with Mod FIT software.

[7] = system: BimEL, ATR, caspase 3, caspase 8, caspase 9, PARP in HeLa cells; assay: Western blot analysis of apoptosis proteins; format: cell-based; conditions: 5 μM, 24 h treatment, untreated control 0%, etoposide-induced activation 100%
Experimental: For electrophoresis, the proteins were separated by sodium dodecyl sulfate–polyacrylamide gel electro-phoresis (SDS–PAGE). The proteins were then transferred to a nitrocellulose membrane, which was blocked with 5% skimmed milk in phosphate buffered saline Tween-20 (PBST). A specific primary antibody was added to bind the target proteins for either 1 h at room temperature or overnight at 4 °C. A horseradish peroxidase (HRP) conjugated secondary antibody was added to the membrane after the primary antibody was washed off. All signals were detected after the HRP was activated by enhanced chemiluminescence. The band intensities of Western results were quantitated with the Image Quant program (Molecular Dynamics Inc.), analyzed and graphed. The untreated controls and the etoposideinduced activation of signaling molecules were taken as 0% and 100%, respectively. Statistic analysis was performed with the uni-polar, paired Student t-test. Data were considered significant when P value was less than 0.05.

[8] = system: HeLa cells; assay: Annexin V-FITC/PI apoptosis assay; conditions: 0.1 μM, 6, 12, 24 and 48 h
Experimental: The HeLa cell line was used for cell apoptosis. Cells (20000 per mL) were incubated with several concentrations of the compounds or drugs for 6–48 h, and incubated in DMEM medium supplemented with 12% fetal calf serum (FCS), 2 mM L -glutamine, and 100 mg/L penicillin G and 100 mg/L streptomycin at 37 °C and 5% CO2. The cells were washed with PBS twice, centrifuged at 206 g for 5 min, and 5–10[5] cells were collected. Binding buffer suspension (500 μL) was added to the cells, and then 5 μL of the FITC-Annexin V mix was added. Next, 10 μL of the PI mix was added, and the suspension was mixed and kept at room temperature for 30 min in the dark. Analysis was with a BD accur C6 flow cytometer.

[9] = system: microtubules in HeLa cells; assay: Immunofluorescence of cellular microtubules; format: cell-based; conditions: 12 and 24 h, compared with negative control 0.1% DMSO
Experimental: Cells (20000 per mL) were plated a onto 6-well tissue culture plates containing 12 mm round coverslips, cultured overnight, and then treated with different drugs at […] concentrations or drug vehicle (0.1% DMSO) for 12 h and 24 h. Attached cells were permeabilized. Cytoskeletons were incubated with α-tubulin, washed twice, and incubated with FITC goat anti-mouse immunoglobulins. The coverslips were washed, and 1 μg/mL DAPI to stain chromatin was added. The mixture was incubated for 30 min. After the samples were washed, they were examined and photographed using an Olympus epifluorescence microscope. The images were recorded with a Perkin Elmer camera.

SMILES	IC50 [1]	IC50 [2]	IC50 [3]	IC50 [4]	IC50 at 48 h [5]	Effect on HeLa cell cycle [6]	Ratio of cell cycle arrest (of total cells) ([6]; HeLa)	Extent of compound-induced ATR [7]	Extent of compound-induced PARP [7]	Extent of compound-induced caspase 3 [7]	Extent of compound-induced caspase 9 [7]	Ratio of apoptotic Hela cells (of total cells) [8]	Total cell cycle arrest percentage (right peak of histogram) ([6]; HeLa, 5.0 μM, 48 h)	Cellular depolymerization of microtubules [9]	Extent of compound-induced BimEL [7]	Percentage of cell cycle arrest (right peak of histogram) ([6]; HeLa, 5.0 μM, 12 h)
COc1ccc(N[C@@H]2c3cc4c(cc3[C@@H](c3cc(OC)c(O)c(OC)c3)[C@H]3C(=O)OC[C@@H]32)OCO4)cc1Cl [Compound 18′, 4β-NH-(3-chloride-4-methoxyaniline)-4-deoxy-4′-demethylepipodophyllotoxin]	1.97 ± 0.16 µM	1.77 ± 0.23 µM	3.04 ± 0.23 µM	3.18 ± 0.51 µM	127.4 ± 0.46 µM	arrested at the G2/M phase	less than 10%	46%	54%	69%	35%	less than 15%	–	–	–	–
COc1ccc(N[C@@H]2c3cc4c(cc3[C@@H](c3cc(OC)c(O)c(OC)c3)[C@H]3C(=O)OC[C@@H]32)OCO4)cc1 [Compound 12′]	24.46 ± 0.16 µM	36 ± 3.21 µM	22.3 ± 1.21 µM	18.8 ± 0.24 µM	28.6 ± 2.35 µM	arrested at the G2/M phase	less than 10%	–	–	–	–	less than 15%	–	–	–	–
COc1cc([C@@H]2c3cc4c(cc3[C@@H](Nc3ccc(Cl)cc3)[C@H]3COC(=O)[C@H]23)OCO4)cc(OC)c1O [Compound 9′]	16.7 ± 1.31 µM	14.3 ± 1.14 µM	29.8 ± 0.75 µM	37.68 ± 0.16 µM	15.8 ± 1.17 µM	–	–	–	–	–	–	–	–	–	–	–
COc1cc([C@@H]2c3cc4c(cc3[C@@H](Nc3ccccc3F)[C@H]3COC(=O)[C@H]23)OCO4)cc(OC)c1O [Compound 4′]	20.7 ± 0.75 µM	17.8 ± 0.34 µM	15.6 ± 1.75 µM	15.3 ± 0.42 µM	31.5 ± 2.81 µM	–	–	–	–	–	–	–	–	–	–	–
COc1cc([C@@H]2c3cc4c(cc3[C@@H](Nc3ccccc3Cl)[C@H]3COC(=O)[C@H]23)OCO4)cc(OC)c1OC [Compound 3]	26.7 ± 1.32 µM	18.1 ± 1.03 µM	27.2 ± 1.95 µM	21.1 ± 0.76 µM	13.2 ± 1.35 µM	–	–	–	–	–	–	–	–	–	–	–
COc1cc([C@@H]2c3cc4c(cc3[C@@H](Nc3ccc(F)cc3)[C@H]3COC(=O)[C@H]23)OCO4)cc(OC)c1OC [Compound 10]	17.51 ± 0.04 µM	17 ± 0.18 µM	12.1 ± 0.63 µM	7.06 ± 0.37 µM	27.4 ± 1.98 µM	–	–	–	–	–	–	–	–	–	–	–
COc1ccc(F)cc1N[C@@H]1c2cc3c(cc2[C@@H](c2cc(OC)c(O)c(OC)c2)[C@H]2C(=O)OC[C@@H]21)OCO3 [Compound 16′]	1.72 ± 0.3 µM	1.32 ± 0.16 µM	3.17 ± 0.49 µM	1.53 ± 0.07 µM	24.3 ± 0.69 µM	–	–	–	–	–	–	–	–	–	–	–
COc1cc([C@@H]2c3cc4c(cc3[C@@H](Nc3cccc(F)c3)[C@H]3COC(=O)[C@H]23)OCO4)cc(OC)c1O [Compound 7′]	5.07 ± 0.31 µM	2.24 ± 0.06 µM	3.88 ± 0.33 µM	3.14 ± 0.15 µM	21.4 ± 1.57 µM	–	–	–	–	–	–	–	–	–	–	–
COc1ccc(Br)cc1N[C@@H]1c2cc3c(cc2[C@@H](c2cc(OC)c(OC)c(OC)c2)[C@H]2C(=O)OC[C@@H]21)OCO3 [Compound 14]	7.07 ± 0.63 µM	6.26 ± 0.36 µM	6.85 ± 0.75 µM	4.97 ± 0.03 µM	87.6 ± 4.13 µM	–	–	–	–	–	–	–	–	–	–	–
COc1cc([C@@H]2c3cc4c(cc3[C@@H](Nc3cccc(Br)c3)[C@H]3COC(=O)[C@H]23)OCO4)cc(OC)c1O [Compound 5′]	8.83 ± 0.12 µM	13.6 ± 0.16 µM	11.8 ± 0.74 µM	10.7 ± 1.48 µM	44.3 ± 1.78 µM	–	–	–	–	–	–	–	–	–	–	–
COc1ccc(Cl)cc1N[C@@H]1c2cc3c(cc2[C@@H](c2cc(OC)c(O)c(OC)c2)[C@H]2C(=O)OC[C@@H]21)OCO3 [Compound 15′]	5.89 ± 0.48 µM	27.1 ± 1.17 µM	29.7 ± 1.67 µM	2.16 ± 0.37 µM	67.6 ± 4.32 µM	–	–	–	–	–	–	–	–	–	–	–
COc1ccccc1N[C@@H]1c2cc3c(cc2[C@@H](c2cc(OC)c(O)c(OC)c2)[C@H]2C(=O)OC[C@@H]21)OCO3 [Compound 11′]	13.5 ± 1.38 µM	9.68 ± 0.17 µM	8.68 ± 0.29 µM	9.42 ± 0.24 µM	63.57 ± 0.19 µM	–	–	–	–	–	–	–	–	–	–	–
COc1ccc(N[C@@H]2c3cc4c(cc3[C@@H](c3cc(OC)c(OC)c(OC)c3)[C@H]3C(=O)OC[C@@H]32)OCO4)cc1Br [Compound 17, 4β-NH-(3-bromide-4-methoxyaniline)-4-deoxy-podophyllotoxin]	–	7.91 ± 0.59 µM	9.08 ± 0.26 µM	10.1 ± 0.18 µM	62.4 ± 1.96 µM	arrested at the G2/M phase	less than 10%	–	27%	37%	0%	less than 15%	86.5%	able to cause cellular depolymerization of microtubules	15%	–
COc1ccc(Cl)cc1N[C@@H]1c2cc3c(cc2[C@@H](c2cc(OC)c(OC)c(OC)c2)[C@H]2C(=O)OC[C@@H]21)OCO3 [Compound 15]	2.64 ± 0.04 µM	3.86 ± 0.29 µM	1.71 ± 0.26 µM	2.24 ± 0.14 µM	19.3 ± 1.34 µM	–	–	–	–	–	–	–	–	–	–	–
COc1cc([C@@H]2c3cc4c(cc3[C@@H](Nc3cccc(F)c3)[C@H]3COC(=O)[C@H]23)OCO4)cc(OC)c1OC [Compound 7]	3.12 ± 0.18 µM	5.21 ± 1.32 µM	6.8 ± 0.31 µM	4.05 ± 0.26 µM	29.9 ± 0.74 µM	–	–	–	–	–	–	–	–	–	–	–
COc1cc([C@@H]2c3cc4c(cc3[C@@H](Nc3ccc(Br)cc3)[C@H]3COC(=O)[C@H]23)OCO4)cc(OC)c1OC [Compound 8]	42.1 ± 0.91 µM	46.2 ± 2.97 µM	52.9 ± 4.36 µM	19.7 ± 0.62 µM	27.1 ± 2.31 µM	–	–	–	–	–	–	–	–	–	–	–
COc1cc([C@@H]2c3cc4c(cc3[C@@H](Nc3cccc(Cl)c3)[C@H]3COC(=O)[C@H]23)OCO4)cc(OC)c1O [Compound 6′]	5.13 ± 0.05 µM	6.59 ± 0.21 µM	5.03 ± 1.07 µM	4.75 ± 0.37 µM	32.5 ± 0.86 µM	–	–	–	–	–	–	–	–	–	–	–
COc1ccc(F)cc1N[C@@H]1c2cc3c(cc2[C@@H](c2cc(OC)c(OC)c(OC)c2)[C@H]2C(=O)OC[C@@H]21)OCO3 [Compound 16]	1.46 ± 0.19 µM	1.37 ± 0.17 µM	1.43 ± 0.09 µM	1.92 ± 0.23 µM	27.7 ± 0.77 µM	–	–	–	–	–	–	–	–	–	–	–
COc1ccccc1N[C@@H]1c2cc3c(cc2[C@@H](c2cc(OC)c(OC)c(OC)c2)[C@H]2C(=O)OC[C@@H]21)OCO3 [Compound 11]	13.4 ± 1.31 µM	14.2 ± 0.98 µM	14.1 ± 0.37 µM	10.2 ± 0.61 µM	37.5 ± 1.75 µM	–	–	–	–	–	–	–	–	–	–	–
COc1ccc(N[C@@H]2c3cc4c(cc3[C@@H](c3cc(OC)c(O)c(OC)c3)[C@H]3C(=O)OC[C@@H]32)OCO4)cc1F [Compound 19′, 4β-NH-(3-fluoro-4-methoxyaniline)-4-deoxy-4′-demethylepipodophyllotoxin]	0.56 ± 0.12 µM	0.4 ± 0.07 µM	1.2 ± 0.25 µM	1.32 ± 0.24 µM	188 ± 7.33 µM	arrested at the G2/M phase	less than 10%	–	–	–	–	less than 15%	–	–	–	84.9%
